System: HeLa cells
Experiment: Fluorescence assay of HeLa cells incubated with lipid conjugates (microtiter plate reader)
Assay type: cell-based
Details: preformed complexes, washed with PBS
Description: General Procedure for Incubation of Cells with Compounds: Cells were cultured in DMEM/RPMI medium supplemented with 10% fetal bovine serum and 1% penicillin/streptomycin. Cells were suspended in phosphate buffered saline (PBS), incubated with an ethanolic solution of lipid conjugates for 1-2 h at 4 or 37° C. to give a final concentration in each well of 0.01-100 μM in a total volume of 100 μL (10% EtOH). After the incubation period, cells were pelleted by centrifugation and washed (2×) and resuspended in 100 μL PBS and analyzed.
ATP Depletion: Cells were pretreated with 4 mM NaN3/0.8 mM NaF in 100 μL PBS for 30 m at 37° C. The cells were then washed with PBS (2×100 μL) and incubated with 100 μM ethanolic solutions of lipids for 2 h (total volume 100 μL, 10% EtOH). Analysis was carried out as described previously.
Incubation under Hypertonic Conditions: Cells were pretreated with 0.3 M sucrose for 30 min at 37° C. in PBS, and were then incubated with lipid solutions. Analysis was carried out as described previously.
Fluorescence Assay: After the incubation period, HeLa cells in PBS were analyzed using an Infinite™ 200 series microtiterplate reader (Tecan Systems, Inc.). All experiments were carried out in 96 well plates with six replicates. The plates were pretreated with 1% BSA for 12 h at 4° C. to minimize non-specific binding.

AF: avidin conjugated to fluorescein isothiocyanate [reference compound]
delivery of AF into the cell (microscopy or fluorescence counting): minimally fluorescent
